In general, IC50 refers to the concentration that inhibits the measured activity by half.

T1 sequence (P62942 with tags, fused parts or gaps F37V limits assumed): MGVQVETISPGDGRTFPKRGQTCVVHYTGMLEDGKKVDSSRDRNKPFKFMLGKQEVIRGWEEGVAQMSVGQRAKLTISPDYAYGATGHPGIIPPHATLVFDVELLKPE

The assay concerns the target T1, L106-tsLuc (FKBP L106P destabilizing domain fused to luciferase) in HCT116 cells (Homo sapiens, UniProt P62942, F37V).
T1 construct: expressed in transfected cells; host or cells: HCT116
Put plainly: Luciferase stabilization assay in HCT116 cells stably transfected with L106-tsLuc. Type of assay: cell-based. The conditions noted are these: 24 hour incubation, 3-fold dilutions, 10 μM to 12 nM, BrightGlo readout, read-out: luciferase activity, expressed in IC50 values. How it is done: The compounds were assayed for their ability to bind to the destabilizing domain of the protein according the following procedure:
HCT116 cells stably transfected with L106-tsLuc were cultured in DMEM media containing 10% fetal bovine serum. 7,000 cells/well were seeded in 100 μL of DMEM/10% FBS media in a 96-well plate and incubated overnight at 37° C. in a humidified, 5% CO2 incubator. Media was replaced with fresh 100 μL of fresh DMEM/10% FBS media containing various concentrations of Shield-1, and the compounds of Example 6 (Ic), and Example 9 (Id) Compounds were added at 3-fold dilutions, concentrations ranging from 10 μM to 12 nM. After 24 hour incubation with the compounds at 37° C. in a humidified, 5% CO2 incubator, luciferase activity was measured in a luminometer after the addition of 100 μL/well BrightGlo reagent (Promega).
Turning to `CCN(C(=O)N1CCCC[C@H]1C(=O)N[C@H](CCc1ccc(OC)c(OC)c1)c1cccc(OCCN2CCOCC2)c1)c1ccccc1` [Example 9 (Id)], the IC50 is less than 10000 nM.

As for `CC[C@H](C(=O)N1CCCC[C@H]1C(=O)OC(CCc1ccc(OC)c(OC)c1)c1cccc(OCCN2CCOCC2)c1)c1cc(OC)c(OC)c(OC)c1` (stereo partly drawn) [Shield-1, reference compound], the IC50 was less than 10 nM.

`CC[C@H](C(=O)N1CCCC[C@H]1C(=O)N[C@H](CCc1ccc(OC)c(OC)c1)c1cccc(OCCN2CCOCC2)c1)c1cc(OC)c(OC)c(OC)c1` [Example 6 (Ic)]: the IC50 was less than 100 nM.

Values taken from patent publication US8153785B2, “Stabilizing ligands for regulation of protein function” (Cheminpharma LLC, priority 2009, dated 2012).
